Tests used:
[1] = Patient history of statin treatment (tolerability); assay type: in vivo, human; settings: history of patient M. (Example 1)
[2] = 0.5% Novocaine, 5.0-10.0 ml, in medicinal mixture administered into the recommended sites; cited from earlier work
[3] = system: myocardial infarction, ischemic stroke and peripheral thrombosis; settings: oral antiplatelet therapy with acetylsalicylic acid and clopidogrel; cited from earlier work

Row | SMILES | reduction of the risk of myocardial infarction, ischemic stroke and peripheral thrombosis [3] | other results
1 | CCC(C)(C)C(=O)O[C@H]1C[C@@H](C)C=C2C=C[C@H](C)[C@H](CC[C@@H]3C[C@@H](O)CC(=O)O3)[C@H]21 [simvastatin] |  | tolerability of earlier treatment [1]: discontinued due to side effects
2 | CCN(CC)CCOC(=O)c1ccc(N)cc1 [Novocaine] |  | undesirable effects [2]: reduction of arterial pressure up to collapse, dizziness, headache, arrhythmia
3 | CC(=O)Oc1ccccc1C(=O)O [acetylsalicylic acid] | 20-25% | 
4 | COC(=O)[C@H](c1ccccc1Cl)N1CCc2sccc2C1 [clopidogrel] | 20-25% | 
